{"source": "patent US20250281519A1", "about": "“NUCLEOTIDE AND NUCLEOSIDE THERAPEUTIC COMPOSITIONS, COMBINATIONS AND USES RELATED THERETO” (EMORY UNIVERSITY, priority 2021, published 2025)", "key": {"EV68": {"test_system": "EV68", "assay": "CPE reduction assay, EV68", "assay_type": "cell-based", "settings": "EV68, strain US/KY/14-18953, RD cells"}, "COXV B3": {"test_system": "COXV B3", "assay": "CPE reduction assay, COXV B3", "assay_type": "cell-based"}, "COXV A18": {"test_system": "COXV A18", "assay": "CPE reduction assay, COXV A18", "assay_type": "cell-based", "settings": "Huh-7; COXV A18, strain G13, Huh7 cells"}, "COXV A7": {"test_system": "COXV A7", "assay": "CPE reduction assay, COXV A7", "assay_type": "cell-based", "settings": "Huh-7; COXV A7, strain WP Parker, Huh7 cells"}, "COXV B1": {"test_system": "COXV B1", "assay": "CPE reduction assay, COXV B1", "assay_type": "cell-based", "settings": "Huh-7; COXV B1, strain Conn5, Huh7 cells"}, "COXV B2": {"test_system": "COXV B2", "assay": "CPE reduction assay, COXV B2", "assay_type": "cell-based", "settings": "COXV B2, strain Ohio 1, Huh7 cells"}, "COXV B4": {"test_system": "COXV B4", "assay": "CPE reduction assay, COXV B4", "assay_type": "cell-based", "settings": "Huh-7; COXV B4, strain JVB, Huh7 cells"}, "EV70": {"test_system": "EV70", "assay": "CPE reduction assay, EV70", "assay_type": "cell-based", "settings": "Huh-7; EV70, strain J670/71, Huh7 cells"}, "EV71": {"test_system": "EV71", "assay": "CPE reduction assay, EV71", "assay_type": "cell-based", "settings": "Enterovirus A"}, "HRV": {"test_system": "HRV", "assay": "CPE reduction assay, HRV", "assay_type": "cell-based", "settings": "HeLa"}, "[1]": {"assay": "Cytotoxicity in RD cells (enterovirus assays)", "assay_type": "cell-based", "settings": "human"}, "[2]": {"assay": "Cytotoxicity in MRC-5 cells (enterovirus assays)", "assay_type": "cell-based", "settings": "human, line of EV71 H"}, "[3]": {"assay": "Cytotoxicity in HeLa cells (enterovirus assays)", "assay_type": "cell-based", "settings": "human, line of HRV 26"}, "HeLa": {"test_system": "HeLa", "assay": "Cytotoxicity in HeLa cells (enterovirus assays)", "assay_type": "cell-based", "settings": "line of HRV 1059"}, "in vitro": {"assay": "in vitro", "settings": "human"}, "Huh7": {"test_system": "Huh7", "assay": "Cytotoxicity in Huh7 cells (enterovirus assays)"}, "HBV": {"test_system": "HBV", "assay": "HBV replication in HepG2.2.15 cells (viral DNA by qPCR)", "assay_type": "cell-based", "settings": "Hepatitis B virus", "procedure": "HepG2.2.15 cells (100 μL) in RPMI1640 medium with 10% fetal bovine serum was added to all wells of a 96-well plate at a density of 1×10^4 cells per well and the plate was incubated at 37° C. in an environment of 5% CO2 for 24 hours. Following incubation, six ten-fold serial dilutions of test compound prepared in RPMI1640 medium with 10% fetal bovine serum were added to individual wells of the plate in triplicate. Six wells in the plate received medium alone as a virus only control. The plate was incubated for 6 days at 37° C. in an environment of 5% CO2. The culture medium was changed on day 3 with medium containing the indicated concentration of each compound. One hundred microliters of supernatant was collected from each well for analysis of viral DNA by qPCR and cytotoxicity was evaluated by XTT staining of the cell culture monolayer on the sixth day.\nTen microliters of cell culture supernatant collected on the sixth day was diluted in qPCR dilution buffer (40 μg/mL sheared salmon sperm DNA) and boiled for 15 minutes. Quantitative real time PCR was performed in […] using an Applied Biosystems 7900HT Sequence Detection System and the supporting SDS 2.4 software. […]"}, "[4]": {"assay": "Cytotoxicity in HepG2 cells (XTT)", "assay_type": "cell-based", "settings": "human, beside HBV", "procedure": "The 50% cytotoxic concentration for the test materials are derived by measuring the reduction of the tetrazolium dye XTT in the treated tissue culture plates. XTT is metabolized by the mitochondrial enzyme NADPH oxidase to a soluble formazan product in metabolically active cells. XTT solution was prepared daily as a stock of 1 mg/mL in PBS. Phenazine methosulfate (PMS) stock solution was prepared at 0.15 mg/mL in PBS and stored in the dark at −20° C. XTT/PMS solution was prepared immediately before use by adding 40 µL of PMS per 1 mL of XTT solution. Fifty microliters of XTT/PMS was added to each well of the plate and the plate incubated for 2-4 hours at 37° C. The 2-4 hour incubation has been empirically determined to be within linear response range for XTT dye reduction with the indicated numbers of cells for each assay. Adhesive plate sealers were used in place of the lids, the sealed plate was inverted several times to mix the soluble formazan product and the plate was read at 450 nm (650 nm reference wavelength) with a Molecular Devices SpectraMax Plus 384 spectrophotometer. Data were collected by Softmax 4.6 software and imported into an Excel spreadsheet for analysis."}, "Adenovirus": {"test_system": "Adenovirus", "assay": "Inhibition of DNA virus replication, Adenovirus", "assay_type": "cell-based", "settings": "unidentified adenovirus"}, "[5]": {"assay": "Cytotoxicity in Huh-7 cells (DNA virus table)", "assay_type": "cell-based", "settings": "human, Huh-7 cells; beside Adenovirus"}, "Huh-7 Cells": {"test_system": "Huh-7 Cells", "assay": "Cytotoxicity in Huh-7 cells (DNA virus table)", "assay_type": "cell-based", "settings": "beside HSV-1"}, "HSV-1": {"test_system": "HSV-1", "assay": "Inhibition of DNA virus replication, HSV-1", "assay_type": "cell-based", "settings": "Human alphaherpesvirus 1"}, "HIV": {"test_system": "HIV", "assay": "HIV infected PBMC assay", "assay_type": "cell-based", "settings": "Human immunodeficiency virus 1, PBMC", "procedure": "Fresh human peripheral blood mononuclear cells (PBMCs) were obtained from a commercial source (Biological Specialty) and were determined to be seronegative for HIV and HBV. Depending on the volume of donor blood received, the leukophoresed blood cells were washed several times with PBS. After washing, the leukophoresed blood was diluted 1:1 with Dulbecco's phosphate buffered saline (PBS) and layered over 15 mL of Ficoll-Hypaque density gradient in a 50 ml conical centrifuge tube. These tubes were centrifuged for 30 min at 600 g. Banded PBMCs were gently aspirated from the resulting interface and washed three times with PBS. After the final wash, cell number was determined by Trypan Blue dye exclusion and cells were re-suspended at 1×10^ 6 cells/mL in RPMI 1640 with 15% Fetal Bovine Serum (FBS), 2 mmol/L L-glutamine, 2 μg/mL PHA-P, 100 U/mL penicillin and 100 μg/mL streptomycin and allowed to incubate for 48-72 hours at 37° C. After incubation, PBMCs were centrifuged and resuspended in tissue culture medium. […]\nFollowing addition of test compound to the wells, 50 μL of a predetermined dilution of HIV virus (prepared from 4× of final desired in-well concentration) was added, and mixed well. […] After 7 days in culture, HIV-1 replication was quantified in the tissue culture supernatant by measurement of reverse transcriptase (RT) activity. […]"}, "[6]": {"assay": "Cytotoxicity in PBM cells", "assay_type": "cell-based", "settings": "human, PHA-P-stimulated peripheral blood mononuclear cells (PBMCs); beside HIV"}, "HCMV": {"test_system": "HCMV", "assay": "Inhibition of DNA virus replication, HCMV", "assay_type": "cell-based", "settings": "Human betaherpesvirus 5"}, "[7]": {"assay": "Cytotoxicity in MRC-5 cells (DNA virus table)", "assay_type": "cell-based", "settings": "human, MRC-5 cells; beside HCMV"}, "MRC-5 Cells": {"test_system": "MRC-5 Cells", "assay": "Cytotoxicity in MRC-5 cells (DNA virus table)", "assay_type": "cell-based", "settings": "beside VZV"}, "VZV": {"test_system": "VZV", "assay": "Inhibition of DNA virus replication, VZV", "assay_type": "cell-based", "settings": "Human alphaherpesvirus 3"}, "CV-B3": {"test_system": "CV-B3", "settings": "read-out: EC50 against CV-B3; cited from earlier work"}, "[8]": {"molecular_target": "human DNA polymerase beta (Homo sapiens (Human), UniProt P06746)", "assay": "Human DNA polymerase inhibition assay, pol beta", "settings": "read-out: Human DNA pol β (IC50 uM)"}, "[9]": {"molecular_target": "human DNA polymerase alpha (Homo sapiens (Human), UniProt P09884)", "sequence (P09884 whole entry)": "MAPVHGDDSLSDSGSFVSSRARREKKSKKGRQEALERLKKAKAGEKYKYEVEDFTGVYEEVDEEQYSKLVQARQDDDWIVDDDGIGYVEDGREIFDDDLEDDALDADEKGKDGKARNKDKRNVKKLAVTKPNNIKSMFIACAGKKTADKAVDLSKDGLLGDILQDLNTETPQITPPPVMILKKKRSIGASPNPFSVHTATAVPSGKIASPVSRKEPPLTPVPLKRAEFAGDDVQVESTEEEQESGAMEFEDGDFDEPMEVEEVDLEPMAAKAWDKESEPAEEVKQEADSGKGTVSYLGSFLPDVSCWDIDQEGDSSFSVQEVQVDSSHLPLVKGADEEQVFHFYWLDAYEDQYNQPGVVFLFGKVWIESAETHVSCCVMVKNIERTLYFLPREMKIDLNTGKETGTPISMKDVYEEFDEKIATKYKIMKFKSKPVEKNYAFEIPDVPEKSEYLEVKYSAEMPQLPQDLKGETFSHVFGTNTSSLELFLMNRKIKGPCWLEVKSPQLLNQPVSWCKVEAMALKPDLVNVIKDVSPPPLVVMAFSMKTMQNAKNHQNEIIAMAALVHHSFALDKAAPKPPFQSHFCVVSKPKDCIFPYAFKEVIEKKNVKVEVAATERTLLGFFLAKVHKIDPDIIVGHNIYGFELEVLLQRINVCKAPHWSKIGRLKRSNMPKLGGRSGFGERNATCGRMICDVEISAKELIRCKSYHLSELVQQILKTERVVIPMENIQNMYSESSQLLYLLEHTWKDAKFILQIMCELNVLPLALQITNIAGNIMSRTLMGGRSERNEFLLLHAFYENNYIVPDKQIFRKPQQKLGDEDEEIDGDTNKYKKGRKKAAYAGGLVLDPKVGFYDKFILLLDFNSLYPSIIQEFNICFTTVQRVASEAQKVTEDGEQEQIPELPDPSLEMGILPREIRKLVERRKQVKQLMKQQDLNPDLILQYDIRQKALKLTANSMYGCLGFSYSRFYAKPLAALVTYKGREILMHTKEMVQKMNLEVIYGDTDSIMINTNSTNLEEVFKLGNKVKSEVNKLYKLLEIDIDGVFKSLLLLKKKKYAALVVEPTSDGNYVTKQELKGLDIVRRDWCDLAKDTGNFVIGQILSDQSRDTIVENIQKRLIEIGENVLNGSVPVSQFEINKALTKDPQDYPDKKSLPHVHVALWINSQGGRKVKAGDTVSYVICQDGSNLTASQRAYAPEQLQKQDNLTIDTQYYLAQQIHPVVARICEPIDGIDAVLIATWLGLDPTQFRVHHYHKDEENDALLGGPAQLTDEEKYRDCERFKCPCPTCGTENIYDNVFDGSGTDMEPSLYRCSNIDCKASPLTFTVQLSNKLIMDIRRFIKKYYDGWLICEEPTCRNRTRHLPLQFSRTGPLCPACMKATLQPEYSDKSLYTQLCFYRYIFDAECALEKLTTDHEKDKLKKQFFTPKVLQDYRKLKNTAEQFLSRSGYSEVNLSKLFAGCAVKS", "assay": "Human DNA polymerase inhibition assay, pol alpha", "settings": "read-out: Human DNA pol α (IC50 uM)"}, "[10]": {"molecular_target": "human DNA polymerase gamma (Homo sapiens (Human), UniProt P54098)", "sequence (P54098 whole entry)": "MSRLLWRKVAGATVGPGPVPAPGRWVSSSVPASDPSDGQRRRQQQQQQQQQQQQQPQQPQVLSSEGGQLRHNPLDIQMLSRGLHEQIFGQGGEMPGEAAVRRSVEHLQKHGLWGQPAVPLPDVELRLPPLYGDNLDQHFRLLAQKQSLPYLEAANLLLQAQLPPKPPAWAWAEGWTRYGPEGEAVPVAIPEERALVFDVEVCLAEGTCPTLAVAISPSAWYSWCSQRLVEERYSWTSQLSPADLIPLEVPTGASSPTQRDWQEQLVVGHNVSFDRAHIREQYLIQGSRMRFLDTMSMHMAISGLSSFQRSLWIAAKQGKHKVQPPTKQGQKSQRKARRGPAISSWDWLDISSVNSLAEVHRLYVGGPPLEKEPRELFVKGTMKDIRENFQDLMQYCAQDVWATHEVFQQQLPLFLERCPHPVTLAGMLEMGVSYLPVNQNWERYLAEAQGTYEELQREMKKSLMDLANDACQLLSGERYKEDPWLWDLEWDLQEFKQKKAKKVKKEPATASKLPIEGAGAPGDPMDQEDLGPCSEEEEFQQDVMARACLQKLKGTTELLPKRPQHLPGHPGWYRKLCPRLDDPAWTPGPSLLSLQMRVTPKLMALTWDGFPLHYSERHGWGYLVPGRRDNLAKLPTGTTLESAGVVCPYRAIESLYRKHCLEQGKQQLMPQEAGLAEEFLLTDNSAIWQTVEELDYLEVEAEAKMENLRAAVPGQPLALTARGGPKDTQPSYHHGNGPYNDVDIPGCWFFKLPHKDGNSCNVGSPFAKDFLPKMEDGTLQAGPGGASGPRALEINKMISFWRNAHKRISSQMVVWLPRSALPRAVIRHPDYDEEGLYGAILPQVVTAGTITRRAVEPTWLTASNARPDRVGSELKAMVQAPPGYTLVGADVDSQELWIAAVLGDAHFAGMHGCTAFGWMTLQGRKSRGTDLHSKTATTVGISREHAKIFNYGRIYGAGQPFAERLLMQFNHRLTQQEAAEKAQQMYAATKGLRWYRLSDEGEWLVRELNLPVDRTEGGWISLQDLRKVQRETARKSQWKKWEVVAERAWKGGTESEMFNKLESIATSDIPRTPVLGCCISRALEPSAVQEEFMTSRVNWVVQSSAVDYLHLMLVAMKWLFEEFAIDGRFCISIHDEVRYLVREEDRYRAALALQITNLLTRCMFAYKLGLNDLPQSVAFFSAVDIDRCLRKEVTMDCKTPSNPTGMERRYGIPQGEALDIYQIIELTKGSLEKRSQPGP", "assay": "Human DNA polymerase inhibition assay, pol gamma"}}}
{"smiles": "CC(C)(C)C(=O)OCOP(=O)(OCOC(=O)C(C)(C)C)OC[C@H]1O[C@@H](n2ccc(=O)[nH]c2=S)[C@](C)(O)[C@@H]1O", "note": "[EIDD-2523]", "values": [{"measurement": "EC50", "setting": "EV68", "result": 0.38, "unit": "µM"}, {"measurement": "EC50", "setting": "COXV B3; Huh-7, COXV B3 (printed COXV 83 in the 3rd table), strain HA 201933, Huh7 cells", "result": 9.3, "unit": "µM"}, {"measurement": "EC50", "setting": "COXV B3; Huh-7, COXV B3, strain Nancy, Huh7 cells", "result": 0.38, "unit": "µM"}, {"measurement": "EC50", "setting": "COXV A18", "result": 2.69, "unit": "µM"}, {"measurement": "EC50", "setting": "COXV A7", "result": 3.37, "unit": "µM"}, {"measurement": "EC50", "setting": "COXV B1", "result": "> 31", "unit": "µM"}, {"measurement": "EC50", "setting": "COXV B2", "result": 2.65, "unit": "µM"}, {"measurement": "EC50", "setting": "COXV B4", "result": "> 16", "unit": "µM"}, {"measurement": "EC50", "setting": "EV70", "result": 0.07, "unit": "µM"}, {"measurement": "EC50", "setting": "EV71; MRC5, EV71, strain H, MRC-5 cells", "result": 1.71, "unit": "µM"}, {"measurement": "EC50", "setting": "EV71; EV71, strain Tainan/4643/98, RD cells", "result": 5.3, "unit": "µM"}, {"measurement": "EC50", "setting": "HRV; strain 26, HeLa cells", "result": 0.43, "unit": "µM"}, {"measurement": "EC50", "setting": "HRV; strain 1059, HeLa cells", "result": 0.72, "unit": "µM"}, {"measurement": "CC50", "setting": "[1]; line of EV68 US/KY/14-18953", "result": 91, "unit": "µM"}, {"measurement": "CC50", "setting": "[1]; line of EV71 Tainan/4643/98", "result": 50, "unit": "µM"}, {"measurement": "CC50", "setting": "[2]", "result": 32, "unit": "µM"}, {"measurement": "CC50", "setting": "[3]", "result": "> 100", "unit": "µM"}, {"measurement": "CC50", "setting": "HeLa", "result": "> 100", "unit": "µM"}, {"measurement": "CC50", "setting": "in vitro", "result": 31, "unit": "µM"}, {"measurement": "CC50", "setting": "Huh7; line of COXV A7 WP Parker", "result": 30, "unit": "µM"}, {"measurement": "CC50", "setting": "Huh7; line of COXV A18 G13", "result": 32, "unit": "µM"}, {"measurement": "CC50", "setting": "Huh7; line of COXV B1 Conn5", "result": 31, "unit": "µM"}, {"measurement": "CC50", "setting": "Huh7; line of COXV B2 Ohio 1", "result": 34, "unit": "µM"}, {"measurement": "CC50", "setting": "Huh7; line of COXV B3 HA 201933", "result": 46, "unit": "µM"}, {"measurement": "CC50", "setting": "Huh7; line of COXV B3 Nancy", "result": 32, "unit": "µM"}, {"measurement": "CC50", "setting": "Huh7; line of COXV B4 JVB", "result": 16, "unit": "µM"}]}
{"smiles": "CC(C)OC(=O)[C@H](C)NP(=O)(OC[C@H]1O[C@@H](n2ccc(=O)[nH]c2=S)C(C)(O)[C@H]1O)Oc1ccccc1", "note": "(stereo partly drawn)", "values": [{"measurement": "IC50", "setting": "HBV", "result": "> 100", "unit": "µM"}, {"measurement": "CC50", "setting": "[4]", "result": "> 100", "unit": "µM"}, {"measurement": "IC50", "setting": "Adenovirus", "result": "> 100", "unit": "µM"}, {"measurement": "CC50", "setting": "[5]", "result": "> 100", "unit": "µM"}, {"measurement": "CC50", "setting": "Huh-7 Cells", "result": "> 100", "unit": "µM"}, {"measurement": "EC50", "setting": "HSV-1", "result": "> 100", "unit": "µM"}, {"measurement": "EC50", "setting": "HIV", "result": "> 100", "unit": "µM"}, {"measurement": "CC50 at 7 days", "setting": "[6]", "result": "> 100", "unit": "µM"}, {"measurement": "EC50", "setting": "HCMV", "result": "> 100", "unit": "µM"}, {"measurement": "CC50", "setting": "[7]", "result": "> 100", "unit": "µM"}, {"measurement": "CC50", "setting": "MRC-5 Cells", "result": "> 100", "unit": "µM"}, {"measurement": "EC50", "setting": "VZV", "result": "> 100", "unit": "µM"}]}
{"smiles": "CN(C)c1ccc(C(=O)O)cc1", "note": "[4-Dimethylamino benzoic acid]", "values": [{"measurement": "EC50", "setting": "CV-B3", "result": 9, "unit": "µM"}]}
{"smiles": "CC1(O)[C@@H](O)[C@@H](COP(=O)(O)OP(=O)(O)OP(=O)(O)O)O[C@H]1n1ccc(=O)[nH]c1=S", "note": "(stereo partly drawn)", "values": [{"measurement": "IC50", "setting": "[8]", "result": 588, "unit": "µM"}, {"measurement": "IC50", "setting": "[9]", "result": "> 1000", "unit": "µM"}, {"measurement": "IC50", "setting": "[10]", "result": "> 1000", "unit": "µM"}]}
